Read-outs that look alike come from different tables or passages of the source. Marks after values point to notes of the source that are not given here.
Legend:
[1] = test system: potato microtubers of cvs. Onaway and Goldrush; experiment: H2O2 hormesis: total phenolic content of microtubers (Folin-Ciocalteu); details: for Total phenolics (Folin-Ciocalteu) of microtubers: mean ± SE (n = 5)
Method: (§1) Based on a preliminary study, concentrations of 2 and 4 mM H2O2 and spray volume of ˜6 ml were selected for hormetic treatments. Phase II plantlets of cvs. Onaway and Goldrush (at 2- and 3-weeks) were treated with three concentrations (0, 2, 4 mM) of H2O2 with 5 replicates×4 containers per replicate (20 containers per treatment). Results were analyzed for variance (ANOVA) test using General Linear Model (GLM) of Statistical Analysis System (SAS) (SAS v 9.2, 2010) (SAS Institute Inc., Cary, N.C., USA). Means were compared using Duncan's Multiple Comparison test (P≦0.05).
(§2) At harvest, microtubers of cvs. Onaway and Goldrush were weighed, and averaged from 20 separate containers. For each replicate, microtubers were pooled for analysis, for a total of 5 samples per treatment/cultivar.

[2] = test system: potato microtubers of cvs. Onaway and Goldrush; experiment: H2O2 hormesis: antioxidant capacity (DPPH) of in vitro-grown microtubers; details: for DPPH total antioxidant capacity of microtubers: mean ± SE (n = 5)
Method: Plantlets of cvs. Onaway and Goldrush were selected for their relatively high concentrations of antioxidants in field-grown tubers. […] Medium consisted of basal salt solution and organic fraction solidified with 7 g 1^-1 agar ([…]) adjusted to pH 5.7 before autoclaving at 121° C. for 20 min. […] (1994). […] Phase I promoted the vegetative growth of plantlets which was luxurious after 4 weeks. In Phase II, the residual medium was drained and replaced with 150 ml of liquid induction medium containing increased sucrose (80 gl^-1) and no growth regulators. […] Phase II plantlets of cvs. […] At harvest, microtubers of cvs. […] (2007).

[3] = test system: potato microtubers of cvs. Onaway and Goldrush; experiment: H2O2 hormesis: microtuber mass / yield; details: for Microtuber mass: mean of 20 containers
Method: (1994). […] Cultures were placed into a growth chamber adjusted to 20±2° C. under 85 μmol m^-2s^-1 cool white florescent illumination with 16:8 h day:night cycle. Phase I promoted the vegetative growth of plantlets which was luxurious after 4 weeks. In Phase II, the residual medium was drained and replaced with 150 ml of liquid induction medium containing increased sucrose (80 gl^-1) and no growth regulators. Phase II incubation occurred at cooler temperature (15±2° C.), under reduced illumination (50 μmol m^-2s^-1), and reversed (8:16 h) day:night cycle. […] Phase II plantlets of cvs. […] At harvest, microtubers of cvs. […] (2007).

[4] = test system: potato microtubers of cvs. Onaway and Goldrush; details: for Increase of ascorbic acid content in comparison to control: cv. Goldrush microtubers; for Ascorbic acid of microtubers / Caffeic acid of microtubers / Chlorogenic acid of microtubers: mean ± SE (n = 5)
Method: as §1, §2

[5] = HPLC quantification of ascorbic acid, chlorogenic acid, caffeic acid, ferulic acid and rutin in tubers, tuber tissues and extracts; details: for % reduction; from 1 to 7 months storage (HPLC content): tubers of 12 Canadian-grown cultivars, cold storage
Method: This assay was based on the method developed by Shakya and Navarre (J Agric Food Chem (2006) 54:5253-5260). Initially, samples (50 mg of freeze-dried powder) were extracted in 0.9 mL of extraction buffer (50% MeOH, 2.5% metaphosphoric acid, 1 mM EDTA) in a 2 mL screw cap tube. Samples were vortexed for 30 sec and centrifuged at 11,070×g for 15 min at 4° C. The supernatant was transferred to a 1.5 mL glass vial. The remaining pellet was re-extracted with 0.6 mL of extraction buffer and centrifuged. The supernatants were combined and concentrated in a Speed Vac (Thermo Savant SC 210A, Waltham, Mass.). The concentrated samples were solubilised with 500 mL of extraction buffer and filtered using 0.45 mm membrane filters (Durapore, PVDF) into 1 mL HPLC glass vials. Samples were kept chilled at all times and shielded from bright light. Samples were analyzed using a Varian HPLC system with a quaternary gradient pump, a single wavelength UV/VIS detector, and an autosampler with refrigerated sample compartment (Varian Canada Inc, Mississauga, ON). Samples were eluted using an Onyx reverse-phase HPLC column (100×4.5 mm) (Phenomenex, Netherlands), a solvent flow rate of 2 mL/min and a solvent gradient of 0-1 min 100% buffer A (10 mM formic acid, pH 3.5, with NH4OH), 1-5 min 0-30% buffer B (100% methanol with 5 mM ammonium formate), 5-6.5 min 40-0% buffer B, 6.5-8.5 min 70-100% buffer B. The phenolic acids in the samples were analyzed qualitatively and quantitatively using standards.
Ascorbic acid concentration was also determined as it is also an important antioxidant compound present in potato. HPLC determination is based on the retention time of a particular compound within a mixed sample in the column compared with purchased pure standards. Three different buffers (Buffer A, Buffer B, & Extraction buffer) were prepared. Buffer A was 10 mM formic acid (Fisher Scientific, ON, Canada) (0.46 g of formic acid in 1 L distilled water adjusted to pH 3.5 using 1M NH4OH solution). Buffer A was kept in a fridge (4° C.) until used. Buffer B was 5 mM ammonium formate (Sigma-Aldrich Chemicals, Germany) (0.32 g of ammonium formate in 1 L 100% methanol with agitation on a magnetic stirrer as ammonium formate is highly insoluble). Buffer B was also refrigerated. The extraction buffer was 50% methanol (Fisher Scientific, ON, Canada), 2.5% metaphosphoric acid (Aldrich Chemicals, WI, USA) and 1 mM ethylenediaminetetraacetic acid (EDTA; Sigma-Aldrich Chemicals, Germany) (50 ml of 100% methanol, 2.5 g of metaphosphoric acid, and 0.4 g of EDTA in 100 ml distilled water with stirring followed by filtering using a cup filter (Millipore Corporation, MS, USA). The extraction buffer was also refrigerated. […]

[6] = test system: IL-8 release in Caco-2 cell cultures; details: cited from earlier work
[7] = test system: carnitine palmitoyltransferase; details: cited from earlier work
[8] = test system: male mice; details: high fat diet, 1 g/kg diet; cited from earlier work
[9] = test system: C57BL/6J mice with diet-induced obesity; experiment: Body weight gain in high fat diet feeding study (10 wk); type: in vivo; details: for Body weight gain: mean ± SD (n = 3-5)
[10] = test system: C57BL/6J mice with diet-induced obesity; experiment: Blood glucose concentration at the end of the HFD feeding period; details: mean ± SD (n = 3-5)
[11] = Females, HFD + 1X (1x CGA 8 mg/kg HFD; 1x FA 20 mg/kg HFD)
[12] = Females, HFD + 5X (1x CGA 8 mg/kg HFD; 1x FA 20 mg/kg HFD)
[13] = Females, HFD + 25X (1x CGA 8 mg/kg HFD; 1x FA 20 mg/kg HFD)
[14] = Males, HFD + 1X (1x CGA 8 mg/kg HFD; 1x FA 20 mg/kg HFD)
[15] = Males, HFD + 5X (1x CGA 8 mg/kg HFD; 1x FA 20 mg/kg HFD)
[16] = Males, HFD + 25X (1x CGA 8 mg/kg HFD; 1x FA 20 mg/kg HFD)

**Q.** Which results are given for `OO` [H2O2, Hydrogen peroxide]?
**A.** Total phenolics (Folin-Ciocalteu) of microtubers ([1]; cv. Goldrush, 2 mM H2O2 spray): 7.076 ± 0.01^a mg/g; Total phenolics (Folin-Ciocalteu) of microtubers ([1]; cv. Goldrush, 4 mM H2O2 spray): 6.354 ± 0.00^a mg/g; Total phenolics (Folin-Ciocalteu) of microtubers ([1]; cv. Onaway, 2 mM H2O2 spray): 4.376 ± 0.00^a mg/g; Total phenolics (Folin-Ciocalteu) of microtubers ([1]; cv. Onaway, 4 mM H2O2 spray): 3.789 ± 0.00^a mg/g; Effect on total polyphenolic levels (Folin-Ciocalteu) ([1]; either cultivar, 2 and 4 mM): not significantly affected; Increase of antioxidant capacity (DPPH) over control ([2]; cv. Goldrush microtubers, 2 mM H2O2 spray): 26%; Increase of antioxidant capacity (DPPH) over control ([2]; cv. Goldrush microtubers, 4 mM H2O2 spray): 20%; DPPH total antioxidant capacity of microtubers ([2]; cv. Goldrush, 2 mM H2O2 spray): 1.316 ± 0.02^a mg/g; DPPH total antioxidant capacity of microtubers ([2]; cv. Goldrush, 4 mM H2O2 spray): 1.214 ± 0.04^b mg/g; Increase of antioxidant capacity (DPPH) over control ([2]; cv. Onaway microtubers, 2 or 4 mM H2O2): 12-14%; DPPH total antioxidant capacity of microtubers ([2]; cv. Onaway, 2 mM H2O2 spray): 0.862 ± 0.02^a mg/g; DPPH total antioxidant capacity of microtubers ([2]; cv. Onaway, 4 mM H2O2 spray): 0.882 ± 0.04^a mg/g; Effect on microtuber yield ([3]; at the dosage applied (2, 4 mM)): did not affect yield; Microtuber mass ([3]; cv. Goldrush, 2 mM H2O2 spray): 10.25^a g; Microtuber mass ([3]; cv. Goldrush, 4 mM H2O2 spray): 10.26^a g; Microtuber mass ([3]; cv. Onaway, 2 mM H2O2 spray): 5.09^a g; Microtuber mass ([3]; cv. Onaway, 4 mM H2O2 spray): 5.07^a g; Increase of ascorbic acid content in comparison to control ([4]; 2 mM): 35%; Increase of ascorbic acid content in comparison to control ([4]; 4 mM): 34%; Effect on microtuber caffeic acid content ([4]; cv. Goldrush, 2 mM): significant depression; Increase of microtuber chlorogenic acid content ([4]; cv. Goldrush, 2 mM): 16.8%; Ascorbic acid of microtubers ([4]; cv. Goldrush, 2 mM H2O2 spray): 0.269 ± 0.03^a mg/g; Caffeic acid of microtubers ([4]; cv. Goldrush, 2 mM H2O2 spray): 0.008 ± 0.00^b mg/g; Chlorogenic acid of microtubers ([4]; cv. Goldrush, 2 mM H2O2 spray): 0.561 ± 0.02^a mg/g; Ascorbic acid of microtubers ([4]; cv. Goldrush, 4 mM H2O2 spray): 0.265 ± 0.00^a mg/g; Caffeic acid of microtubers ([4]; cv. Goldrush, 4 mM H2O2 spray): 0.011 ± 0.00^a mg/g; Chlorogenic acid of microtubers ([4]; cv. Goldrush, 4 mM H2O2 spray): 0.460 ± 0.02^b mg/g; Treatment effect on ascorbic acid content ([4]; cv. Onaway microtubers): not significant; Increase of microtuber chlorogenic acid content ([4]; cv. Onaway, 2 mM): 17.3%; Ascorbic acid of microtubers ([4]; cv. Onaway, 2 mM H2O2 spray): 0.170 ± 0.02^a mg/g; Caffeic acid of microtubers ([4]; cv. Onaway, 2 mM H2O2 spray): 0.002 ± 0.00^a mg/g; Chlorogenic acid of microtubers ([4]; cv. Onaway, 2 mM H2O2 spray): 0.304 ± 0.02^a mg/g; Ascorbic acid of microtubers ([4]; cv. Onaway, 4 mM H2O2 spray): 0.164 ± 0.02^a mg/g; Caffeic acid of microtubers ([4]; cv. Onaway, 4 mM H2O2 spray): 0.001 ± 0.00^b mg/g; Chlorogenic acid of microtubers ([4]; cv. Onaway, 4 mM H2O2 spray): 0.265 ± 0.04^ab mg/g

**Q.** Which “% reduction of ascorbic acid with storage” value ([5]; tubers of 5 foreign cultivars, 1 to 7 months storage) does the source give for `O=C1O[C@H]([C@@H](O)CO)C(O)=C1O` [ascorbic acid] here?
**A.** Its value is 36.09%.

**Q.** And the “% reduction; from 1 to 7 months storage (HPLC content)” value [5]?
**A.** Its value is 80.48%.

**Q.** What does the source list for `O=C(O)/C=C/c1ccc(O)c(O)c1` [caffeic acid]?
**A.** % reduction; from 1 to 7 months storage (HPLC content) [5]: 92.16%; Dose needed to suppress IL-8 secretion to levels seen in control cultures [6]: 2000 µM

**Q.** With `O=C(/C=C/c1ccc(O)c(O)c1)O[C@@H]1C[C@](O)(C(=O)O)C[C@@H](O)[C@H]1O` [chlorogenic acid] as the compound, how does the Carnitine palmitoyltransferase activity [7] read?
**A.** Its Carnitine palmitoyltransferase activity is “unaffected”.

**Q.** And the “Effect on body weight gain” value [8]?
**A.** The value was “no effect on body weight gain”.

**Q.** What about the “Dose needed to suppress IL-8 secretion to levels seen in control cultures” value [6] of the same compound?
**A.** Its value is 2000 µM.

**Q.** And the Body weight gain [9, 11]?
**A.** Its Body weight gain is 9.7 ± 4.9^a g.

**Q.** What about the Body weight gain [9, 12] of the same compound?
**A.** Its Body weight gain is 7.6 ± 4.1^a g.

**Q.** What about the Body weight gain [9, 13] of the same compound?
**A.** Its Body weight gain is 9.8 ± 3.4^a g.

**Q.** And the Body weight gain [9, 14]?
**A.** Its Body weight gain is 22.4 ± 0.8^b g.

**Q.** What about the Body weight gain [9, 15] of the same compound?
**A.** Its Body weight gain is 18.2 ± 4.1^a,b,c g.

**Q.** And the Body weight gain [9, 16]?
**A.** Its Body weight gain is 8.8 ± 5.3^c g.

**Q.** And the “Effect of pure compound on body weight” value ([9]; female mice, up to 200 mg/kg diet)?
**A.** Its value is “no statistically significant effect”.

**Q.** What about the “Effect of pure compound on body weight gain” value ([9]; male mice, 8-200 mg/kg diet) of the same compound?
**A.** The value was “did not affect body weight gain”.

**Q.** For `COc1cc(/C=C/C(=O)O)ccc1O` [ferulic acid], which “% reduction; from 1 to 7 months storage (HPLC content)” value [5] is on record?
**A.** The value was 90.21%.

**Q.** And the Fasting blood glucose [10, 11]?
**A.** The Fasting blood glucose was 3.8 ± 0.6^a mmol/L.

**Q.** What about the Fasting blood glucose [10, 12] of the same compound?
**A.** The Fasting blood glucose was 6.9 ± 1.1^a mmol/L.

**Q.** And the Fasting blood glucose [10, 13]?
**A.** Its Fasting blood glucose is 4.7 ± 1.6^a mmol/L.

**Q.** What about the Fasting blood glucose [10, 14] of the same compound?
**A.** The Fasting blood glucose was 5.2 ± 0.6^b mmol/L.

**Q.** What about the Fasting blood glucose [10, 15] of the same compound?
**A.** The Fasting blood glucose was 6.1 ± 1.2^a mmol/L.

**Q.** What about the Fasting blood glucose [10, 16] of the same compound?
**A.** The Fasting blood glucose was 5.4 ± 0.2^b mmol/L.

**Q.** What about the Body weight gain [9, 11] of the same compound?
**A.** The Body weight gain was 9.7 ± 3.4^a g.

**Q.** What about the Body weight gain [9, 12] of the same compound?
**A.** The Body weight gain was 6.3 ± 1.2^a g.

**Q.** And the Body weight gain [9, 13]?
**A.** The Body weight gain was 8.8 ± 5.0^a g.

**Q.** And the Body weight gain [9, 14]?
**A.** Its Body weight gain is 12.4 ± 3.7^a,b,c g.

**Q.** And the Body weight gain [9, 15]?
**A.** Its Body weight gain is 10.8 ± 2.3^a,b,c g.

**Q.** And the Body weight gain [9, 16]?
**A.** The Body weight gain was 11.0 ± 6.5^a,b,c g.

**Q.** What about the “Effect of pure compound on body weight gain” value ([9]; both sexes, up to 500 mg/kg diet) of the same compound?
**A.** Its value is “ineffective in suppressing body weight gain”.

**Q.** For `O=C(/C=C/c1ccc(O)c(O)c1)O[C@@H]1C[C@@](O)(C(=O)O)C[C@@H](O)[C@@H]1O` [neochlorogenic acid], which Carnitine palmitoyltransferase activity [7] is on record?
**A.** The Carnitine palmitoyltransferase activity was “enhanced”.

Source: patent publication US9446063B2, “Methods for treating type-2 diabetes and obesity” (priority 2009, dated 2016)
